# Test results as given in paper PMC4127372 (Journal of pharmaceutical and biomedical analysis, 2014).
# Settings: pre-tested baboon plasma following intravenous infusion
compound,measurement,value
CCCCCCCCCCNCCN[C@@]1(C)C[C@H](O[C@H]2[C@H](Oc3c4cc5cc3Oc3ccc(cc3Cl)[C@@H](O)[C@@H](NC(=O)[C@@H](CC(C)C)NC)C(=O)N[C@@H](CC(N)=O)C(=O)N[C@H]5C(=O)N[C@H]3C(=O)N[C@H](C(=O)N[C@H](C(=O)O)c5cc(O)c(CNCP(=O)(O)O)c(O)c5-c5cc3ccc5O)[C@H](O)c3ccc(c(Cl)c3)O4)O[C@H](CO)[C@@H](O)[C@@H]2O)O[C@@H](C)[C@H]1O [telavancin],lowest concentration of telavancin determined in pre-tested baboon plasma,approximately 200 ng/ml
